Structures are written as SMILES.

The values that follow come from US6399649B1, “Compositions and methods for the treatment of chronic lymphocytic leukemia” (Boston Medical Center Corporation, priority 1998, dated 2002).

Data set [1] concerns CLL cells, resting or anti-Ig activated CD19+ cells, IL-2 supplemented WMC. Briefly: cAMP time course in four cell populations. Conditions: 24 hours; any of the four cell populations. The format is cell-based, human. The protocol: […] 0.8 mL of cells were pelleted by spinning at 4,000 rpm (RCF=1,310) in microcentrifuge tube. After discarding 0.7 mL, 400 uL of ethanol was added, vortexed and left on ice for five minutes. Particulate cell debris was removed by centrifugation at 14,000 rpm (RCF=16,000). The supernatant was stored at −20° C. until the day of assay, at which time it was dried in a Speedivac (Savant, Farmingdale, N.Y.) to a volume of 50 uL. After ten-fold dilution in 10 mMol/L Tris pH 8.0, 1 mMol/L EDTA, the cAMP sample was analyzed for cAMP concentration using a cAMP RIA kit (NEN, Boston, Mass.) according to the manufacturer's instructions using the nonacetylated protocol.
For each of the four cell populations, two or six hours after drug treatment, cAMP levels were higher for rolipram/forskolin-treated cells than for forskolin only treated cells (test: one tailed significance level<0.05) (FIG. 9).

The conditions of data set [2]: cited from earlier work.
The next data set deals with PDE-4B transcript. Briefly: Northern analysis of PDE-4B transcript in cultured CLL cells. The class given is cell-based, human. Conditions: 10 uMol/L, six hour culture period.
A further data set deals with Type 4 enzymes. Conditions: cited from earlier work.
The subject of data set [3] is PDE activity in CLL cells. Put plainly: cAMP PDE assay on CLL cell lysates. The format is biochemical, human. The settings on record: 10 uMol/L. From the text: The technique of Robiesek et al., itself adapted from an assay described by Thompson and Appleman, was used in modified form. S. A. Robicsek et al., “Multiple high-affinity cAMP-phosphodiesterases in human T-lymphocytes,” Biochem. Pharmacol. 42:869 (1991). W. J. Thompson and M. M. Appleman, “Multiple cyclic nucleotide phosphodiesterase activities from rat brain,” Biochemistry 10:311 […]. 150 million purified CLL cells were pelleted and sonicated (Branson 350 Sonifier with micropit probe, output =2, 50% duty cycle) on ice in 1.0 mL of a buffer which contained 20 mMol/L Tris (pH 6.8), 1 mMol/L EDTA, aprotinin (50 u/mL), pepstatin (1 mg/mL), PMSF (1 mMol/L) and 3.75 mMol/L b-ME. Assay buffer contained 100 mMol/L Tris (pH 8.0), 20 mMol/l MgCl2, 0.2% BSA and 7.5 mMol/L b-ME. [^3H]-cAMP (NEN, Boston, Mass.) was incubated with PDE for 10 minutes at 30° C. in 20 uL volumes (10 uL of sonication buffer and 10 uL of assay buffer) which contained 0.22 units of alkaline phosphatase. 10 uMol/L rolipram or 0.2 mMol/L calcium/20 nMol/L calmodulin were added to the assay buffer as appropriate. Reactions were halted by the addition of 0.5 mL of a 1:3 slurry w/v slurry of AG1-X8 anion exchange resin and a mixture of equal volumes of water and isopropanol. […] The radiolabelled nucleosides in the supernatant were counted using Ecoscint scintillation fluid (National Diagnostics, Atlanta, Ga.). […]

Data set [4] has as its system magnetic bead purified CD19+B cells. Briefly: Hoechst 33342 apoptosis assay, CD19+ B cells. The class given is cell-based, human. The protocol:
Hoechst 33342 was dissolved in water and frozen at 33 mg/mL at −20° C. One million cells/well were incubated in duplicate or triplicate in 48 well tissue culture plates (Costar, Cambridge, Mass.) with or without drug treatment for […] in 1 mL of culture media. Cells were transferred to 12×75 mm polystyrene Falcon® 2054 FACS tubes (Becton Dickinson Labware, Lincoln Park, N.J.) and incubated for ten minutes at 37° C. with Hoechst 33342 at a final concentration of […]. 23 Cells were stored on ice until analysis on a FACS Vantage flow cytometer (Becton Dickinson, San Jose, Calif.). Hoechst 33342 dye fluorescence was excited with a UV laser and detected using a 450 bandpass filter; Data was analyzed using Cellquest software (Becton Dickinson, San Jose, Calif.).
This example describes the effect of PDE4 inhibition on normal B and T cells. […] Specifically, one million WMC were cultured with the indicated concentration of rolipram with or without the addition of 40 uMol/L forskolin for 72 hours in the presence of 2 units/mL IL-2. Apoptosis was determined by Hoechst 33342 flow cytometry. […] In contrast, magnetic bead purified CD19+B cells were sensitive to rolipram, although the increment in apoptosis observed was superimposed on a high basal apoptosis rate that has previously been reported in cultured human B cells. Given that crosslinking of cell surface immunoglobulin on resting B cells has been reported to reduce basal and forskolin-induced apoptosis in culture, we also stimulated CD19+ cells with a polyclonal Fab′2 anti-IgM/IgG reagent 30 minutes prior to the addition of the phosphodiesterase inhibitor.

Protocol for PDE-4B transcript: RNA was isolated from CLL or whole mononuclear cells using Ultraspec reagent (Biotecx, Houston, Tex.). cDNA was synthesized from 10 ug of total RNA using oligo d(T) primers and Maloney murine leukemia virus reverse transcriptase in a final volume of 40 uL (Stratagene, La Jolla, Calif.). One mL of the first strand cDNA product was then used as template for PCR amplification with AmpliTaq DNA polymerase (Roche Molecular Systems, Branchburg, N.J.) by 40 thermocycles of 94° C. for 1 minute, 600° C. for 1 minute and 72° C. for 1 minute. […] For hybridization to Northern blots, these PCR products were subcloned into a plasmid vector (pCRII, Invitrogen, Carlsbad, Calif.) and subsequently utilized for PCR-based amplification of a32P dATP-labelled probes.
RNA was isolated from 20 million CLL cells immediately after cell purification (CT), or after 6 hours culture in media alone (6 Hr) or with addition of 10 uMol/L rolipram (Roli). Equal loading and transfer of RNA was confirmed by hybridization with an actin probe as shown.

`COc1ccc(C2CNC(=O)C2)cc1OC1CCCC1` (racemic) [rolipram, 4-(3-cyclopentyloxy-4-methoxyphenyl)-2-pyrrolidone]: the “augmentation of forskolin-stimulated cAMP accumulation” value in data set [1] is reported as “no longer significant rolipram-induced augmentation”. The emesis result in data set [2] (humans, higher dosages) is “emetogenic”. For the same compound, the tolerability entry in data set [2] (studied as an antidepressant in humans) was “well tolerated”. In the data set with PDE-4B transcript, the PDE-4B transcript levels entry is reported as “significantly reduced this fall in PDE-4B transcript levels”. The 50% inhibitory concentration (IC50) (as a rule, the point on the concentration scale where inhibition reaches its midpoint) at Type 4 enzymes is 1000 nM. For the same compound, the “PDE activity in CLL cells” value in data set [3] is “inhibited”. The “apoptosis of anti-Ig stimulated CD19+ B cells” value in data set [4] (polyclonal Fab'2 anti-IgM/IgG 30 minutes prior to inhibitor) was “markedly reduced both basal apoptosis and the sensitivity of the B cells to rolipram”. The “apoptosis of CD19+ B cells” value in data set [4] (unstimulated, high basal apoptosis rate) was “sensitive”.
